ChEMBL document CHEMBL1201862, “PubChem BioAssay data set” (2004)
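Cells were grown in 96-well plates and exposed to each compound for 48 hours at five concentrations; endpoints were interpolated linearly between bracketing concentrations, or set to the highest concentration if not reached. GI50 is the concentration that inhibits growth by half.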 The source made the active and inactive calls. Cut-off read from the data, not from the text of the source: active = GI50 up to about 1.1 µM and inactive = higher.

Legend:
Experiment in all cases: DTP human tumour cell line panel, 48 h
786-0 = test system: 786-0
BT-549 = test system: BT-549
CCRF-CEM = test system: CCRF-CEM
COLO 205 = test system: COLO 205
NCI-H23 = test system: NCI-H23
NCI-H460 = test system: NCI-H460
NCI-H522 = test system: NCI-H522
NCI/ADR-RES = test system: NCI/ADR-RES
OVCAR-3 = test system: OVCAR-3
RPMI-8226 = test system: RPMI-8226
RXF 393 = test system: RXF 393
SF-268 = test system: SF-268
SF-295 = test system: SF-295
SK-MEL-28 = test system: SK-MEL-28
SNB-75 = test system: SNB-75
SW-620 = test system: SW-620
U-251 = test system: U-251
UACC-62 = test system: UACC-62
UO-31 = test system: UO-31
SR = test system: SR

Measured: GI50

Cc1ccc2c(O)cc(-c3cc4ccccc4s3)nc2n1
active: UO-31 0.0353 µM
inactive: 786-0 > 75.5 µM | BT-549 > 100 µM | CCRF-CEM > 100 µM | COLO 205 > 100 µM | NCI-H23 > 56.2 µM | NCI-H460 50.9 µM | NCI-H522 33.9 µM | NCI/ADR-RES > 57.7 µM | OVCAR-3 > 100 µM | RPMI-8226 4.33 µM | RXF 393 33.7 µM | SF-268 43.2 µM | SF-295 40.1 µM | SK-MEL-28 > 100 µM | SNB-75 17.5 µM | SW-620 > 100 µM | U-251 > 100 µM | UACC-62 > 68.7 µM

Nc1nc(-c2cc(-c3cccc4ccccc34)nc(N)n2)cc(-c2cccc3ccccc23)n1
inactive: 786-0 > 100 µM | BT-549 > 100 µM | CCRF-CEM > 100 µM | COLO 205 > 100 µM | NCI-H23 > 100 µM | NCI-H460 > 100 µM | NCI-H522 > 100 µM | NCI/ADR-RES > 100 µM | OVCAR-3 > 100 µM | RPMI-8226 > 100 µM | RXF 393 > 100 µM | SF-268 > 100 µM | SF-295 65.8 µM | SK-MEL-28 > 100 µM | SR > 100 µM | SW-620 > 100 µM | U-251 > 100 µM | UACC-62 > 100 µM | UO-31 > 100 µM

COc1cc([C@@H]2c3cc4c(cc3[C@@H](c3c(O)cc(O)c5c3O[C@H](c3ccc(O)c(O)c3)[C@@H](O)C5)[C@H]3COC(=O)[C@H]23)OCO4)cc(OC)c1OC
inactive: 786-0 24 µM | BT-549 > 100 µM | CCRF-CEM 50.7 µM | COLO 205 22.7 µM | NCI-H23 78 µM | NCI-H460 1.87 µM | NCI-H522 14.1 µM | NCI/ADR-RES 46 µM | OVCAR-3 1.64 µM | RPMI-8226 19.6 µM | RXF 393 1.71 µM | SF-268 29.7 µM | SF-295 1.85 µM | SK-MEL-28 48.4 µM | SW-620 32 µM | U-251 1.69 µM | UACC-62 1.72 µM

COc1cc(C2c3c(ccc4ccccc34)C(=O)C3CCC(=O)N32)cc(OC)c1O (configuration not stated)
inactive: 786-0 > 25 µM | BT-549 > 25 µM | CCRF-CEM 19.9 µM | COLO 205 > 25 µM | NCI-H23 > 25 µM | NCI-H460 > 25 µM | NCI/ADR-RES > 25 µM | OVCAR-3 > 25 µM | RPMI-8226 > 25 µM | RXF 393 > 25 µM | SF-295 > 25 µM | SK-MEL-28 > 25 µM | SNB-75 > 25 µM | SR > 25 µM | SW-620 > 25 µM | U-251 > 25 µM | UACC-62 > 25 µM | UO-31 > 25 µM

COc1ccccc1N1CCN(S(=O)(=O)c2ccc(Cl)cc2)C1=N
inactive: 786-0 99.5 µM | BT-549 > 100 µM | COLO 205 73.6 µM | NCI-H23 60 µM | NCI-H460 33.4 µM | NCI-H522 40.5 µM | NCI/ADR-RES 61.2 µM | OVCAR-3 97.9 µM | RPMI-8226 93.8 µM | RXF 393 > 100 µM | SF-268 > 100 µM | SF-295 > 100 µM | SK-MEL-28 75 µM | SNB-75 > 100 µM | SW-620 64.6 µM | U-251 37.5 µM | UACC-62 26.3 µM | UO-31 33.3 µM

O=S(=O)(N1CCCCN(S(=O)(=O)C(F)(F)F)CCCN(S(=O)(=O)C(F)(F)F)CCCCN(S(=O)(=O)C(F)(F)F)CCCN(S(=O)(=O)C(F)(F)F)CCCCN(S(=O)(=O)C(F)(F)F)CCCN(S(=O)(=O)C(F)(F)F)CCCCN(S(=O)(=O)C(F)(F)F)CCC1)C(F)(F)F
inactive: 786-0 > 100 µM | BT-549 > 31.6 µM | CCRF-CEM > 31.6 µM | COLO 205 > 100 µM | NCI-H23 > 31.6 µM | NCI-H460 > 31.6 µM | NCI-H522 > 31.6 µM | NCI/ADR-RES > 31.6 µM | OVCAR-3 > 31.6 µM | RPMI-8226 78.7 µM | RXF 393 > 31.6 µM | SF-268 > 31.6 µM | SF-295 > 31.6 µM | SK-MEL-28 > 31.6 µM | SNB-75 > 31.6 µM | SW-620 > 31.6 µM | U-251 > 100 µM | UACC-62 > 31.6 µM | UO-31 > 31.6 µM

CC(/C=N\NC(=S)N1CCCCC1)=N/NC(=S)N1CCCCC1
active: NCI-H460 0.358 µM | NCI/ADR-RES 0.759 µM | SF-268 1.05 µM | SF-295 0.627 µM | SW-620 0.935 µM | U-251 0.815 µM | UACC-62 0.671 µM | UO-31 0.649 µM
inactive: 786-0 2.03 µM | BT-549 3.03 µM | COLO 205 1.75 µM | NCI-H23 2.42 µM | NCI-H522 1.54 µM | OVCAR-3 1.53 µM | RPMI-8226 2.32 µM | RXF 393 2.01 µM | SK-MEL-28 4.49 µM | SNB-75 1.69 µM

COc1ccc2c(c1)CC[C@@H]1[C@@H]2CC[C@]2(C)C(=O)/C(=C/c3ccc(OC)c(OC)c3)C[C@@H]12
inactive: 786-0 > 100 µM | BT-549 > 100 µM | NCI-H23 97.9 µM | NCI-H460 > 100 µM | NCI/ADR-RES > 100 µM | OVCAR-3 > 100 µM | RPMI-8226 56.2 µM | RXF 393 > 100 µM | SF-295 > 100 µM | SNB-75 > 100 µM | SR 5.07 µM | SW-620 > 100 µM | U-251 > 100 µM | UACC-62 > 100 µM | UO-31 > 100 µM

CCOC(=O)c1cn(CC)c2ccc3c(c2c1=O)S(=O)(=O)C=C3
inactive: 786-0 > 100 µM | BT-549 > 100 µM | CCRF-CEM > 100 µM | COLO 205 > 100 µM | NCI-H23 > 100 µM | NCI-H460 > 100 µM | NCI-H522 > 100 µM | NCI/ADR-RES > 100 µM | OVCAR-3 > 100 µM | RPMI-8226 > 100 µM | RXF 393 47 µM | SF-268 > 100 µM | SF-295 > 100 µM | SK-MEL-28 > 100 µM | SNB-75 > 100 µM | SW-620 > 100 µM | U-251 > 100 µM | UACC-62 > 100 µM | UO-31 60.1 µM

CCC1c2[nH]c3ccccc3c2C[C@H]2C(=O)N3CCC[C@H]3C(=O)N12 (some centres not stated)
inactive: 786-0 > 100 µM | BT-549 > 100 µM | COLO 205 > 100 µM | NCI-H23 > 100 µM | NCI-H522 75.7 µM | NCI/ADR-RES > 100 µM | OVCAR-3 > 100 µM | RPMI-8226 50.9 µM | RXF 393 > 100 µM | SF-268 > 100 µM | SF-295 > 100 µM | SK-MEL-28 > 100 µM | SR 59.3 µM | SW-620 92.9 µM | U-251 92.5 µM | UACC-62 70.6 µM | UO-31 > 100 µM

Cn1c(-c2ccccc2)cc(-c2ccc3c(c2)OCO3)c1-c1cccs1
inactive: 786-0 > 100 µM | BT-549 > 100 µM | CCRF-CEM > 100 µM | COLO 205 > 100 µM | NCI-H23 64.7 µM | NCI-H460 > 100 µM | NCI/ADR-RES > 100 µM | OVCAR-3 > 100 µM | RPMI-8226 > 100 µM | RXF 393 > 100 µM | SF-268 > 100 µM | SF-295 > 100 µM | SK-MEL-28 > 100 µM | SNB-75 > 100 µM | SR > 100 µM | SW-620 > 100 µM | U-251 > 100 µM | UACC-62 > 100 µM | UO-31 > 100 µM

CCOC(=O)C1=NOC2(C=C(Br)C(=O)C(Br)=C2)C1
active: 786-0 0.659 µM | CCRF-CEM < 0.0132 µM | COLO 205 0.991 µM | NCI-H522 0.335 µM | RPMI-8226 0.217 µM | SW-620 0.37 µM | UO-31 1.09 µM
inactive: BT-549 5.21 µM | NCI-H23 3.05 µM | NCI-H460 6.55 µM | NCI/ADR-RES 2.97 µM | OVCAR-3 1.39 µM | RXF 393 1.59 µM | SF-268 14.8 µM | SF-295 15.5 µM | SK-MEL-28 6.75 µM | SNB-75 16.9 µM | U-251 9.93 µM | UACC-62 3.7 µM

O=C1C(CN2CCCCC2)CCCC1CN1CCCCC1 (configuration not stated)
inactive: 786-0 8.26 µM | BT-549 16.4 µM | NCI-H23 22.9 µM | NCI/ADR-RES 18.5 µM | OVCAR-3 18.6 µM | RPMI-8226 2.24 µM | RXF 393 16.3 µM | SK-MEL-28 17.4 µM | SR 15.3 µM | SW-620 5.45 µM | U-251 > 100 µM | UACC-62 > 55.7 µM | UO-31 > 56.2 µM

COc1ccc2[nH]c3c(c2c1)CC(=O)N1CCC[C@H](C1)CC31OCCCO1
inactive: 786-0 > 100 µM | BT-549 > 100 µM | CCRF-CEM 64.6 µM | COLO 205 > 100 µM | NCI-H23 > 100 µM | NCI-H460 > 100 µM | NCI/ADR-RES > 100 µM | OVCAR-3 > 100 µM | RPMI-8226 > 100 µM | RXF 393 44.5 µM | SF-268 > 100 µM | SF-295 > 100 µM | SK-MEL-28 > 100 µM | SNB-75 86.9 µM | SR > 100 µM | SW-620 > 100 µM | U-251 > 100 µM | UACC-62 77.1 µM | UO-31 > 100 µM

Oc1ccccc1C1=NOC(c2ccc(C(F)(F)F)cc2)C1 (configuration not stated)
inactive: 786-0 > 50 µM | BT-549 > 50 µM | CCRF-CEM > 50 µM | COLO 205 > 50 µM | NCI-H23 > 50 µM | NCI-H460 > 50 µM | NCI-H522 > 50 µM | NCI/ADR-RES > 50 µM | OVCAR-3 > 50 µM | RPMI-8226 > 50 µM | RXF 393 > 50 µM | SF-268 > 50 µM | SF-295 > 50 µM | SK-MEL-28 > 50 µM | SNB-75 > 50 µM | SW-620 > 50 µM | U-251 > 50 µM | UACC-62 > 50 µM
